Values after ≈ are worked out from the molar mass of the structure shown.
Key:
[1] = tested on: Schistosoma mansoni adult schistosomes (49-day-old); experiment: effect on adult schistosomes (49-day-old) in mice; format: in vivo; conditions: single 400 mg/kg per os
Protocol: Mice were infected with 100 Schistosoma mansoni cercariae […]. Each group was treated per os with OZ compounds at single doses of 200, 400, and 600 mg/kg. […] All groups were killed 4 weeks after treatment and the liver and intestine were removed and separated. The liver and intestine were compressed and alive male and female worms could be seen and counted.

[2] = tested on: ANKA strain of P. berghei; experiment: single dose STI in vivo screen in infected mice; parameters: species or system Plasmodium berghei; conditions: for Activity (%) 3 mg/kg SSV po / Activity (%) 10 mg/kg SSV po: percent reduction in parasitemia day 3 post-infection; for Activity (%) 3 mg/kg SSV po / Survival (days) 3 mg/kg SSV po: single 3 mg/kg po in SSV; for Survival (days) 10 mg/kg SSV po / Activity (%) 10 mg/kg SSV po: single 10 mg/kg po in SSV
Summary of the method: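 Groups of 3-5 Moro SPF or NMRI mice infected with the ANKA strain of P. berghei received a single dose of trioxolane on day one post-infection. The compound was given in 3% ethanol and 7% Tween 80 or in SSV (0.5% w/v CMC, 0.5% v/v benzyl alcohol, 0.4% v/v Tween 80, 0.9% w/v sodium chloride in water). Antimalarial activity was scored as percent reduction in parasitemia on day three and as survival time versus untreated controls. Survival to day 30 counted as cure.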

[3] = tested on: P. falciparum NF54 strain (sensitive to standard antimalarials); experiment: semiautomated microdilution assay, [3H]-hypoxanthine incorporation, NF54 strain; format: cell-based, Plasmodium falciparum; conditions: NF54 strain, 72 h incubation
Summary of the method: (§1)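 Intraerythrocytic stages from unsynchronised stock cultures are exposed to test compounds in a semiautomated microdilution format, and fifty percent inhibitory concentrations are then fitted by logit regression.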

[4] = tested on: Schistosoma mansoni 21-day-old schistosomules; experiment: effect on 21-day-old schistosomules in mice; format: in vivo; conditions: single 200 mg/kg per os, female mice
Protocol: All groups were killed 4 weeks after treatment and the liver and intestine were removed and separated. The liver and intestine were compressed and alive male and female worms could be seen and counted. The effect of the compounds was evaluated by mean total and female worm burden.

[5] = tested on: P. falciparum K1 strain (Thailand resistant to chloroquine); experiment: semiautomated microdilution assay, [3H]-hypoxanthine incorporation, K1 strain; format: cell-based, Plasmodium falciparum; conditions: K1 strain, 72 h incubation
Summary of the method: as §1

P. berghei ANKA strain = experiment: treatment: 3x3 mg/kg and 3x1 mg/kg po divided doses in infected mice; format: in vivo, Plasmodium berghei; conditions: for Activity (%) p.o. SSV: percent reduction of parasitemia day 4
Protocol: Moro NMRI male mice (Fü Albino specific pathogen free) weighing 18±2 g were infected intravenously (i.v.) with 2×10^7 P. berghei ANKA strain-infected erythrocytes from donor mice on day 0 of the experiment. From donor mice with circa 30% parasitemia, heparinized blood was taken and diluted in physiological saline to 10^8 parasitized erythrocytes per ml. An aliquot (0.2 ml) of this suspension was injected i.v. into experimental and control groups of mice. In untreated control mice, parasitemia rose regularly to 40 to 50% by day 3 post-infection and 70 to 80% by day 4 post-infection. The mice died between days 5 and 7 post-infection. Throughout the experiments, mice were kept in groups of three or five animals in Makrolon type II cages in an air-conditioned animal room at 22 to 23° C. A diet with p-aminobenzoic acid (PABA) of 45 mg (NAFAG FUTTER© food N^o 9009 PAB-45) per kg of body weight, and tap water is available ad libitum.
OZ compounds were prepared at an appropriate concentration, either as a solution or a suspension containing SSV (0.5% w/v CMC, 0.5% v/v benzyl alcohol, 0.4% v/v Tween 80, and 0.9% w/v sodium chloride in water). They were administered per os (p.o.) in a total volume of 0.01 ml per gram of mouse. The activity of the compound was determined by a variety of methods outlined in subsequent sections. Survival time was also recorded, and survival to day 30 post-infection was considered to be a cure.
The second experiment consists of administration of divided 3×3 mg/kg and 3×1 mg/kg po doses administered on days 1, 2, and 3 post-infection. On day 4 post-infection, blood smears of all animals were prepared and stained with Giemsa. Parasitemia was determined microscopically, and the difference between the mean value of the control group (taken as 100%) and those of the experimental groups was calculated and expressed as percent reduction. Compounds were administered orally in the SSV vehicle.

[6] = 3 × 1 mg/kg days 1, 2, 3 post-infection
[7] = 3 × 3 mg/kg days 1, 2, 3 post-infection

Row | SMILES | % reduction of adult worms growth at day 49 after per os application of 400 mg/kg, TWR (%) [1] | adult worms at day 49, per os 400 mg/kg, DEAD WORM (%) [1] | Activity (%) 3 mg/kg SSV po [2] | Survival (days) 10 mg/kg SSV po [2] | IC50 (ng/ml) NF54 [3] | % reduction of schistosomule growth at day 21 after per os application of 200 mg/kg, FWR (%) [4] | % reduction of schistosomule growth at day 21 after per os application of 200 mg/kg, TWR (%) [4] | IC50 (ng/ml) K1 [5] | infected mice cured (P. berghei ANKA strain; 3×3 mg/kg po on days 1, 2, 3 post-infection, SSV) | Activity (%) 10 mg/kg SSV po [2] | Survival (days) 3 mg/kg SSV po [2] | Survival (days) p.o. SSV (P. berghei ANKA strain; [6]) | Activity (%) p.o. SSV (P. berghei ANKA strain; [6]) | Survival (days) p.o. SSV (P. berghei ANKA strain; [7]) | Activity (%) p.o. SSV (P. berghei ANKA strain; [7])
1 | O=C1CN(C(=O)C[C@H]2CC[C@]3(CC2)OO[C@]2(O3)C3CC4CC(C3)CC2C4)CCN1 [OZ296] | 1% | 13% | 90% | 10.0 days | 0.89 ng/mL (≈ 0.0022 µM) | 85% | 85% | 0.60 ng/mL (≈ 0.00148 µM) | – | – | – | – | – | – | –
2 | c1cc(OC[C@H]2CC[C@]3(CC2)OO[C@]2(O3)C3CC4CC(C3)CC2C4)ccn1 [OZ301] | – | – | 97% | – | – | – | – | – | ⅕ | 100% | – | – | – | – | –
3 | O=C(O)CNC[C@H]1CC[C@]2(CC1)OO[C@]1(O2)C2CC3CC(C2)CC1C3 [OZ309] | 19% | 17% | 86% | 8.8 days | 17 ng/mL (≈ 0.0484 µM) | 100% | 97% | 11 ng/mL (≈ 0.0313 µM) | – | – | – | – | – | – | –
4 | O=C(O)C1CCN(C(=O)C[C@H]2CC[C@]3(CC2)OO[C@]2(O3)C3CC4CC(C3)CC2C4)CC1 [OZ312] | 16% | 9% | 13% | 7.2 days | 27 ng/mL (≈ 0.0623 µM) | 93% | 94% | 19 ng/mL (≈ 0.0438 µM) | – | 43% | – | – | – | – | –
5 | O=C(O)CC[C@H]1CC[C@]2(CC1)OO[C@]1(O2)C2CC3CC(C2)CC1C3 [OZ352] | 16% | 26% | 77% | 8.2 days | 20 ng/mL (≈ 0.0594 µM) | 91% | 89% | 19 ng/mL (≈ 0.0565 µM) | – | 99.66% | 7.2 days | – | – | – | –
6 | O=C(O)C(=O)NC[C@H]1CC[C@]2(CC1)OO[C@]1(O2)C2CC3CC(C2)CC1C3 [OZ360] | 0/0% | 0/0% | 0% | 6.8 days | 59 ng/mL (≈ 0.161 µM) | 13% | 17% | 58 ng/mL (≈ 0.159 µM) | – | 38% | 6.2 days | – | – | – | –
7 | Oc1ccc(C2CCC3(CC2)OOC2(O3)C3CC4CC(C3)CC2C4)cc1 (stereo not drawn) [compound 288] | – | – | – | – | – | – | – | – | – | – | – | 8.4 days | 49% | 10.2 days | 99%
8 | CCOC(=O)CNCC1CCC2(CC1)OOC1(O2)C2CC3CC(C2)CC1C3.CS(=O)(=O)O (stereo not drawn) [compound 290] | – | – | – | – | – | – | – | – | – | – | – | 6.8 days | 14% | 10.6 days | 93%
9 | O=C1CN(C(=O)CC2CCC3(CC2)OOC2(O3)C3CC4CC(C3)CC2C4)CCN1 (stereo not drawn) [compound 296] | – | – | – | – | – | – | – | – | – | – | – | 7.8 days | 49% | 9.4 days | 94%
10 | O=C(CC1CCC2(CC1)OOC1(O2)C2CC3CC(C2)CC1C3)N1CCC(O)CC1 (stereo not drawn) [compound 297] | – | – | – | – | – | – | – | – | – | – | – | 6.4 days | 22% | 9.4 days | 89%
11 | NS(=O)(=O)c1ccc(NCC2CCC3(CC2)OOC2(O3)C3CC4CC(C3)CC2C4)cc1 (stereo not drawn) [compound 298] | – | – | – | – | – | – | – | – | – | – | – | 11 days | 93% | 16.4 days | 99.99%
12 | O=c1ccn(CC2CCC3(CC2)OOC2(O3)C3CC4CC(C3)CC2C4)cc1 (stereo not drawn) [compound 302] | – | – | – | – | – | – | – | – | – | – | – | 13.4 days | 87% | 13.4 days | 99.51%
13 | Cc1ccc(S(=O)(=O)O)cc1.NCCNC(=O)CC1CCC2(CC1)OOC1(O2)C2CC3CC(C2)CC1C3 (stereo not drawn) [compound 305] | – | – | – | – | – | – | – | – | – | – | – | 9.6 days | 87% | 12.2 days | 99.91%
14 | CS(=O)(=O)O.O=C(O)CNCC1CCC2(CC1)OOC1(O2)C2CC3CC(C2)CC1C3 (stereo not drawn) [compound 309] | – | – | – | – | – | – | – | – | – | – | – | 9.4 days | 66% | 9.2 days | 99%
15 | NC1(C(=O)NCC2CCC3(CC2)OOC2(O3)C3CC4CC(C3)CC2C4)CCCC1 (stereo not drawn) [compound 317] | – | – | – | – | – | – | – | – | – | – | – | 11.4 days | 73% | 16.8 days | 100%
16 | CS(=O)(=O)O.NC(=O)CCNCC1CCC2(CC1)OOC1(O2)C2CC3CC(C2)CC1C3 (stereo not drawn) [compound 319] | – | – | – | – | – | – | – | – | – | – | – | 13 days | 92% | 11.2 days | 99.97%
17 | NC(=O)c1cn(CC2CCC3(CC2)OOC2(O3)C3CC4CC(C3)CC2C4)cn1 (stereo not drawn) [compound 320] | – | – | – | – | – | – | – | – | – | – | – | 8.6 days | 50% | 9.6 days | 96%
18 | CS(=O)(=O)O.NCCOc1ccc(C2CCC3(CC2)OOC2(O3)C3CC4CC(C3)CC2C4)cc1 (stereo not drawn) [compound 323] | – | – | – | – | – | – | – | – | – | – | – | 14.4 days | 66% | 14.4 days | 99.95%

From patent publication US6906205B2, “Spiro and dispiro 1,2,4-trioxolane antimalarials” (Medicines for Malaria Venture MMV, priority 2002, dated 2005)
